Earlier results as cited in patent US20140044784A1, “COMBINED FORMULATION WITH IMPROVED STABILITY” (BORYUNG PHARMACEUTICAL CO., LTD, priority 2011, published 2014).

Conditions: daily administration of a low dose (about 80 mg)

## CC(=O)Oc1ccccc1C(=O)O [aspirin, acetylsalicylic acid]
  Reduction of heart attack, stroke, and cardiovascular mortalities: at least 25%
